The source of these data is ChEMBL document CHEMBL1201862, “PubChem BioAssay data set” (2004).

Counter-ions that a name gives are not always drawn.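 In this assay, cells in 96-well plates receive the compound at five concentrations for 48 hours. Endpoints are linearly interpolated between the surrounding concentrations. Abbreviation: GI50, concentration required for 50% inhibition of growth.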 The source made the active and inactive calls. Cut-off read from the data, not from the text of the source: active = GI50 up to about 1.1 µM and inactive = higher.

Test systems include BT-549; CCRF-CEM; HCC 2998; HCT-116; HCT-15; HOP-62; HT-29; IGROV-1; MDA-MB-231; MDA-MB-435; NCI-H23; NCI-H522; RPMI-8226; SNB-19; NCI/ADR-RES; OVCAR-3; OVCAR-4; OVCAR-5.
Holding throughout (experiment): NCI tumour cell line growth inhibition, 48 h

In the case of `CC1=NC(=Cc2ccc(O)cc2)C(=O)N1n1c(-c2ccccc2)nc2ccccc2c1=O`, the GI50 is > 100 µM (inactive) in the test with BT-549; > 100 µM (inactive) in the test on CCRF-CEM; > 100 µM (inactive) in the test with HCC 2998; > 100 µM (inactive) in the test with HCT-116; greater than 100 µM in the test with HCT-15; > 100 µM (inactive) in the test with HOP-62. In addition, the GI50 in the test on HT-29, in the test on IGROV-1, with MDA-MB-231, in the test with MDA-MB-435, in the test with NCI-H23 and with NCI-H522 was > 100 µM (inactive) each time. Further, the GI50 in the test with RPMI-8226 and in the test on SNB-19 was > 100 µM (inactive) throughout.
In the case of `NCCS` [CYSTEAMINE HYDROCHLORIDE], the GI50 in the test with CCRF-CEM is > 100 µM (inactive); in the test with HCC 2998 it was > 100 µM (inactive); in the test on HCT-116 it was > 100 µM (inactive); with HCT-15, greater than 100 µM; with HOP-62 it was > 100 µM (inactive); in the test on HT-29, > 100 µM (inactive). In addition, the GI50 in the test with IGROV-1, in the test on MDA-MB-231, with MDA-MB-435, in the test with NCI-H23, in the test on NCI-H522 and with NCI/ADR-RES was > 100 µM (inactive) each time. In addition, the GI50 in the test on OVCAR-3, in the test on OVCAR-4, in the test on OVCAR-5, in the test on RPMI-8226 and with SNB-19 was > 100 µM (inactive) throughout.
With `CC1(C)C(/C=N\O)=[N+]([O-])C(C)(C)N1O`, the GI50 is 89.7 µM (inactive) in the test on CCRF-CEM; > 100 µM (inactive) in the test with HCC 2998; > 100 µM (inactive) with HCT-116; greater than 100 µM in the test with HCT-15; > 100 µM (inactive) in the test on HOP-62; 54.3 µM (inactive) in the test on HT-29. Also, the GI50 was > 100 µM (inactive) in the test on IGROV-1; > 100 µM (inactive) in the test with MDA-MB-231; 25.2 µM (inactive) in the test on MDA-MB-435; > 100 µM (inactive) in the test on NCI-H23; > 100 µM (inactive) in the test on NCI/ADR-RES; 49.7 µM (inactive) with OVCAR-3. Moreover, the GI50 in the test with OVCAR-4, in the test with OVCAR-5, in the test on RPMI-8226 and in the test with SNB-19 was > 100 µM (inactive) in each case.
Take `CC(C)[Si](OC1=CCC[C@H]2NC(=O)[C@@H](Cc3ccc([N+](=O)[O-])cc3)[C@@]12C)(C(C)C)C(C)C`: the GI50 in the test with BT-549 was 3.76 µM (inactive); with CCRF-CEM, 2.86 µM (inactive); with HCC 2998, 1.95 µM (inactive); in the test on HCT-116 it was 3.68 µM (inactive); in the test with HCT-15 it was 4.25 µM; in the test on HOP-62 it was 4.3 µM (inactive). Moreover, the GI50 in the test on HT-29 is 2.12 µM (inactive); in the test with IGROV-1, 11.3 µM (inactive); with MDA-MB-231, 6.5 µM (inactive); in the test on NCI-H23, 5.53 µM (inactive); in the test on NCI-H522 it was 4.95 µM (inactive); with NCI/ADR-RES it was 11.7 µM (inactive). Further, the GI50 in the test with OVCAR-3 is 4.34 µM (inactive); in the test on OVCAR-4, 4.47 µM (inactive); in the test with OVCAR-5, 8.65 µM (inactive); in the test on SNB-19 it was 12.5 µM (inactive).
Take `CC1CN(CCO)CCN1c1ccccc1` (stereo not drawn): the GI50 with BT-549 is > 100 µM (inactive); in the test with HCT-116, > 100 µM (inactive); in the test on HCT-15, greater than 100 µM; in the test with HOP-62, > 100 µM (inactive); in the test on HT-29, > 100 µM (inactive); with IGROV-1 it was > 100 µM (inactive). For the same compound, the GI50 in the test with MDA-MB-231, with MDA-MB-435, in the test with NCI-H23, with NCI-H522, with NCI/ADR-RES and in the test with OVCAR-3 was > 100 µM (inactive) throughout. The GI50 in the test with OVCAR-4, in the test with OVCAR-5, in the test on RPMI-8226 and with SNB-19 was > 100 µM (inactive) each time.
In the case of `CCN(CC)CC(O)C1CCC(c2ccccc2)CC1` (stereo not drawn), the GI50 in the test with CCRF-CEM is 27.4 µM (inactive); with HCC 2998, 0.627 µM (active); in the test with HCT-116, 23.2 µM (inactive); in the test on HCT-15, 13.2 µM; with HOP-62, 30.9 µM (inactive); in the test with HT-29, 10.5 µM (inactive). Besides, the GI50 in the test with IGROV-1 was 35.2 µM (inactive); in the test on MDA-MB-231 it was 17.1 µM (inactive); in the test with MDA-MB-435 it was 17.1 µM (inactive); in the test on NCI-H23 it was 30.4 µM (inactive); in the test on NCI-H522 it was 16.2 µM (inactive); with NCI/ADR-RES, 43.2 µM (inactive). Further, the GI50 in the test on OVCAR-3 was 44 µM (inactive); in the test with OVCAR-5, 23.2 µM (inactive); in the test on RPMI-8226, 13.5 µM (inactive); in the test on SNB-19, 25.8 µM (inactive).
On to `O=C1C[S+]([O-])C23c4cc5ccccc5n4CCC2CCCN13` (stereo not drawn), for which the GI50 in the test on BT-549 was > 100 µM (inactive); in the test on HCT-116, > 100 µM (inactive); in the test with HCT-15 it was greater than 100 µM; in the test on HOP-62 it was > 100 µM (inactive); in the test on HT-29, > 100 µM (inactive); in the test with IGROV-1, > 100 µM (inactive). The GI50 in the test on MDA-MB-231, in the test on MDA-MB-435, in the test with NCI-H23, in the test on NCI-H522, with NCI/ADR-RES and in the test on OVCAR-3 was > 100 µM (inactive) throughout. The GI50 in the test with OVCAR-4, in the test on OVCAR-5, in the test on RPMI-8226 and with SNB-19 was > 100 µM (inactive) in each case.
Turning to `CC(C)CCC[C@@H](C)C1CCC2[C@@H]3CCC4C[C@@H](NS(C)(=O)=O)CC[C@]4(C)C3CC[C@@]21C` (stereo partly drawn), the GI50 is > 100 µM (inactive) with BT-549; > 100 µM (inactive) with CCRF-CEM; > 100 µM (inactive) in the test with HCT-116; greater than 100 µM with HCT-15; > 100 µM (inactive) in the test on HOP-62; > 100 µM (inactive) in the test on HT-29. In addition, the GI50 in the test on IGROV-1, with MDA-MB-231, in the test on MDA-MB-435, in the test on NCI-H23, in the test on NCI-H522 and in the test on NCI/ADR-RES was > 100 µM (inactive) each time. Moreover, the GI50 in the test with OVCAR-3, in the test with OVCAR-4, with RPMI-8226 and with SNB-19 was > 100 µM (inactive) each time.
Turning to `Cc1ccc(C(=O)/C=C/N2CCN(c3cccc(C(F)(F)F)c3)CC2)cc1`, the GI50 in the test on HCC 2998 is 12.4 µM (inactive); with HCT-116, 16.7 µM (inactive); with HCT-15 it was 15.6 µM; in the test on HOP-62 it was 20.7 µM (inactive); with HT-29 it was 17.9 µM (inactive); in the test with IGROV-1, 16.3 µM (inactive). For the same compound, the GI50 was 14.6 µM (inactive) in the test on MDA-MB-231; 16.9 µM (inactive) in the test with MDA-MB-435; 16.8 µM (inactive) in the test on NCI-H23; 17.5 µM (inactive) with NCI-H522; 17.9 µM (inactive) in the test with NCI/ADR-RES; 14.4 µM (inactive) in the test on OVCAR-3. The GI50 is 43.7 µM (inactive) in the test on OVCAR-4, 21.4 µM (inactive) in the test with OVCAR-5, 31.9 µM (inactive) with RPMI-8226 and 30.1 µM (inactive) in the test with SNB-19.
Turning to `Oc1nc(S)nc2nc3c4cccnc4c4ccccc4c3nc12`, the GI50 is > 100 µM (inactive) in the test on BT-549; 74.6 µM (inactive) in the test on CCRF-CEM; > 100 µM (inactive) with HCC 2998; > 100 µM (inactive) in the test with HCT-116; greater than 100 µM with HCT-15; 52.7 µM (inactive) with HOP-62. Also, the GI50 with HT-29 was > 100 µM (inactive); with IGROV-1, > 100 µM (inactive); in the test on MDA-MB-435, > 100 µM (inactive); with NCI-H23 it was > 100 µM (inactive); in the test with NCI-H522 it was 86.3 µM (inactive); in the test with OVCAR-3, > 100 µM (inactive). In addition, the GI50 is > 100 µM (inactive) in the test on OVCAR-4, > 100 µM (inactive) in the test with OVCAR-5, 45.8 µM (inactive) in the test with RPMI-8226 and > 100 µM (inactive) in the test with SNB-19.
With `O=C(/C=C/c1ccsc1)c1ccc(Cl)cc1`, the GI50 with CCRF-CEM was 21.9 µM (inactive); in the test with HCC 2998, > 100 µM (inactive); with HCT-116, 23.7 µM (inactive); in the test on HCT-15, 39.7 µM; in the test with HOP-62, > 100 µM (inactive); with HT-29, 36.5 µM (inactive). For the same compound, the GI50 was > 100 µM (inactive) in the test on IGROV-1; 63.7 µM (inactive) in the test with MDA-MB-231; 41.8 µM (inactive) in the test with MDA-MB-435; 35.3 µM (inactive) in the test with NCI-H23; 78.3 µM (inactive) in the test on NCI/ADR-RES; > 100 µM (inactive) in the test with OVCAR-4. For the same compound, the results for the GI50 in the test on OVCAR-5, in the test on RPMI-8226 and in the test on SNB-19 were 56.1 µM (inactive), 21 µM (inactive) and 53.8 µM (inactive), respectively.
For `Nc1nc(N)c2ncn(CC3CCC(CO)C3)c2n1` (stereo not drawn), the GI50 in the test with CCRF-CEM is > 100 µM (inactive); in the test on HCC 2998 it was > 100 µM (inactive); in the test with HCT-116, > 100 µM (inactive); in the test on HCT-15 it was greater than 100 µM; in the test on HOP-62 it was > 100 µM (inactive); in the test with MDA-MB-231 it was > 100 µM (inactive). For the same compound, the GI50 in the test with MDA-MB-435, in the test with NCI/ADR-RES, in the test with OVCAR-3, in the test on OVCAR-4, with OVCAR-5 and in the test with RPMI-8226 was > 100 µM (inactive) in each case. For the same compound, the GI50 in the test with SNB-19 is > 100 µM (inactive).
As for `CC(C)CC[C@H](O)[C@@H](C)[C@H]1[C@@H](OC2OC(C)C(O)C(O)C2O)C[C@H]2[C@@H]3CC=C4C[C@@H](O)CC[C@]4(C)[C@H]3[C@@H](O)C[C@]12C` (stereo partly drawn), the GI50 in the test on BT-549 was 0.491 µM (active); in the test on CCRF-CEM, 0.25 µM (active); in the test with HCC 2998, > 100 µM (inactive); with HCT-116 it was 0.258 µM (active); with HCT-15 it was greater than 56.1 µM; with HOP-62, 0.301 µM (active). For the same compound, the GI50 is 1.75 µM (inactive) with HT-29; 4.42 µM (inactive) with IGROV-1; 1.55 µM (inactive) in the test on MDA-MB-435; 8.49 µM (inactive) with NCI-H23; 3.69 µM (inactive) in the test with NCI-H522; > 92.9 µM (inactive) with NCI/ADR-RES. For the same compound, the GI50 is > 100 µM (inactive) in the test with OVCAR-3, > 24.9 µM (inactive) in the test on OVCAR-5, 0.0631 µM (active) in the test on RPMI-8226 and > 100 µM (inactive) with SNB-19.
